This is an account of results in PMC10779535, “Design and Synthesis of D3R Bitopic Ligands with Flexible Secondary Binding Fragments: Radioligand Binding and Computational Chemistry Studies” (Molecules, 2023).

Usually IC50 stands for the concentration needed to halve the response being measured.

One assay concerns the target T1, human D2 (Homo sapiens, UniProt P14416).
T1 construct: expressed in transfected cells
In words: D2R radioligand binding assay ([125I]IABN, HEK cells). The note with it: human D2 expressed in HEK cells, [125I]IABN radioligand, at least three experiments, HCl salts; read-out: Ki ± SEM D2R. On the procedure: (§1) The receptor binding assay for the D2R and the D3R and the β-arrestin recruitment assay for the D3R were performed by following the previously reported methods.

For assay [1], the target named is T2, D3R (Homo sapiens, UniProt P35462). In words: D3R radioligand binding assay ([125I]IABN, HEK cells). Particulars: for D2R/D3R Ratio: (Ki for D2R)/(Ki for D3R), D3R versus D2R selectivity (fold); for Ki: human D3 expressed in HEK cells, [125I]IABN radioligand, at least three experiments, HCl salts, read-out: Ki ± SEM D3R. Details: expressed in transfected cells. On the procedure: as §1
T2 sequence (P35462 whole entry): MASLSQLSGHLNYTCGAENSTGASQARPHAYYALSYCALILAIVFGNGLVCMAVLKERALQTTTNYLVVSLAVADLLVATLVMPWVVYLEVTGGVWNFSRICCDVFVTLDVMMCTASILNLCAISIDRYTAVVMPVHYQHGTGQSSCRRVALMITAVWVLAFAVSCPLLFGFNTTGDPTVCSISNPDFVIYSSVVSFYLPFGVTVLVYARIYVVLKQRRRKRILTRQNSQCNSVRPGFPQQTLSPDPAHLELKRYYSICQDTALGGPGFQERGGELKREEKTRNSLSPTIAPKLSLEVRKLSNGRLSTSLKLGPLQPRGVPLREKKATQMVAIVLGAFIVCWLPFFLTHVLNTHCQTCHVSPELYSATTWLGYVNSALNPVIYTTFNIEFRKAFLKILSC

For assay [2], the target named is T2, D3R. Particulars: cited from earlier work; for Ki: read-out: D3R affinity.
Assay [3] concerns the target T2, D3R. In words: β-arrestin competition (recruitment) assay against dopamine. The note with it: competition with dopamine (30 nM) for the D3R, at least three experiments; read-out: β-Arrestin Assay IC50 ± SEM. Type of assay: cell-based. How it is done:
Compounds having a longer aliphatic linker ((R,S)-trans-2b–d) have a similar IC50 value in this assay. As expected, the IC50 value of β-arrestin assay parallels the Ki value in the D3R binding assay. It is of interest to note that the potency of (R,S)-trans-2a in the β-arrestin assay is higher than its potency in the in vitro binding assay for the D3R.
as §1

The next assay has as its target D2R. Particulars: cited from earlier work.
For assay [4], the target named is T2, D3R. On the set-up: method as in PMID 33918451. The note with it: MDS, Fallypride; cited from earlier work.
Where [5] appears, read: Figure 1, PET radiotracers, read-out: D2R affinity.

Where two headings read alike, the source gives them in different places. A value given as a limit tells only on which side of the number the result lay.

T1 sequence (P14416 whole entry): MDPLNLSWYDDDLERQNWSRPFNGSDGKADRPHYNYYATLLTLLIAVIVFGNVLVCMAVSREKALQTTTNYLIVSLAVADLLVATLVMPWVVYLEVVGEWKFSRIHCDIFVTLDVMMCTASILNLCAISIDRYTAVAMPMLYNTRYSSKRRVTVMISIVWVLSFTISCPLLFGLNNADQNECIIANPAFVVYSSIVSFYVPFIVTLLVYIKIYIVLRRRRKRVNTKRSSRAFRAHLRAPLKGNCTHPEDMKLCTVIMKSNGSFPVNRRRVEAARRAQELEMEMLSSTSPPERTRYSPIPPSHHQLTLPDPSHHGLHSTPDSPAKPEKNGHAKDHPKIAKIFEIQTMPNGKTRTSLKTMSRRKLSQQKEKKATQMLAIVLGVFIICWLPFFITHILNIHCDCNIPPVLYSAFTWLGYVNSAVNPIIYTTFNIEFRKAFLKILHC

In the case of `C=CCN1C[C@H](OC(=O)NCCOCCOCCOCCOC)C[C@H]1CNC(=O)c1cc(CCCF)cc(OC)c1OC` [(R,S)-trans-2f, (3R,5S)-1-allyl-5-((5-(3-fluoropropyl)-2,3-dimethoxybenzamido)methyl)pyrrolidin-3-yl (2,5,8,11-tetraoxatridecan-13-yl)carbamate], at human D2, the Ki was determined as 11.5 ± 2.6 nM. At D3R [1], the “D2R/D3R Ratio” value turned out to be 2.2 and the Ki was determined as 5.3 ± 0.8 nM.

Consider `CCCN(CCC1(O)CC(NC(=O)c2ccc3ccccc3c2)C1)C1CC1c1ccc(Cl)cc1` (stereo not drawn) [CJ-1882], for which the Ki on D3R [2] (CJ-1882) is 2.8 nM.

As to `CCN(CCCCNC(=O)c1cc2ccccc2[nH]1)CCNC(=O)c1cc(Br)cc(OC)c1OC` [HY-2-93], at D3R [2] (HY-2-93), the “D3R/D2R, D3R versus D2R selectivity (fold)” value is 180 and the Ki was 0.8 nM.

As for `C=CCN1C[C@H](OC(=O)NCCCCCC)C[C@H]1CNC(=O)c1cc(CCCF)cc(OC)c1OC` [(R,S)-trans-2b, (3R,5S)-1-allyl-5-((5-(3-fluoropropyl)-2,3-dimethoxybenzamido)methyl)pyrrolidin-3-yl hexylcarbamate], the Ki at human D2 was found to be 5.5 ± 1 nM; on D3R [1] it was 1.6 ± 0.4 nM. Moreover, on D3R [3], the 50% inhibitory concentration (IC50) was determined as 7.8 ± 5.9 nM. Further, the “D2R/D3R Ratio” value at D3R [1] turned out to be 3.4.

In the case of `C=CCN1C[C@H](OC(=O)NCCCCCCCCCC)C[C@@H]1CNC(=O)c1cc(CCCF)cc(OC)c1OC` [(R,R)-cis-2d, (3R,5R)-1-allyl-5-((5-(3-fluoropropyl)-2,3-dimethoxybenzamido)methyl)pyrrolidin-3-yl decylcarbamate], the values for the Ki at human D2 and at D3R [1] were 9600 ± 2360 nM and 1660 ± 433 nM, respectively. Moreover, the IC50 on D3R [3] was > 1000 nM.

For the compound `C=CCN1C[C@H](OC(=O)NCCCCCCCC)C[C@H]1CNC(=O)c1cc(CCCF)cc(OC)c1OC` [(R,S)-trans-2c, (3R,5S)-1-allyl-5-((5-(3-fluoropropyl)-2,3-dimethoxybenzamido)methyl)pyrrolidin-3-yl octylcarbamate], the Ki at human D2 came out at 15.9 ± 3.3 nM. The IC50 on D3R [3] was found to be 27.8 ± 21.1 nM. Further, at D3R [1], the “D2R/D3R Ratio” value was found to be 4.7 and the Ki stood at 3.4 ± 0.8 nM.

As to `C=CCN1C[C@H](OC(=O)NCCCCCCc2cccs2)C[C@H]1CNC(=O)c1cc(CCCF)cc(OC)c1OC` [(R,S)-trans-2h, (3R,5S)-1-allyl-5-((5-(3-fluoropropyl)-2,3-dimethoxybenzamido)methyl)pyrrolidin-3-yl (6-(thiophen-2-yl)hexyl)carbamate], the Ki on human D2 was 3.9 ± 0.4 nM; on D3R [1] it was 0.6 ± 0.1 nM. On D3R [1], the “D2R/D3R Ratio” value was 6.2.

On to `CCN1CCC[C@H]1CNC(=O)c1cc(Br)cc(OC)c1O[11CH3]` [[^11C]FLB 457], for which, at D3R [2] (Figure 1, PET radiotracers), the D2R/D3R is recorded as 1.294 and the Ki was 0.017 nM. On D2R (setting [5]), the Ki is 0.022 nM.

As to `C=CCN1C[C@H](OC(=O)NCCCC)C[C@H]1CNC(=O)c1cc(CCCF)cc(OC)c1OC` [(R,S)-trans-2a, (3R,5S)-1-allyl-5-((5-(3-fluoropropyl)-2,3-dimethoxybenzamido)methyl)pyrrolidin-3-yl butylcarbamate], on human D2, the Ki was 4.8 ± 0.5 nM. For the same compound, the IC50 on D3R [3] was determined as 0.8 ± 0.5 nM. Moreover, on D3R [1], the “D2R/D3R Ratio” value is reported as 1.8 and the Ki came to 2.6 ± 0.3 nM.

Turning to `C=CCN1C[C@H](OC(=O)NCCCCCCCCCC)C[C@H]1CNC(=O)c1cc(CCCF)cc(OC)c1OC` [(R,S)-trans-2d, (3R,5S)-1-allyl-5-((5-(3-fluoropropyl)-2,3-dimethoxybenzamido)methyl)pyrrolidin-3-yl decylcarbamate], the figures for the Ki on human D2 and on D3R [1] were 35.6 ± 8.1 nM and 2.8 ± 0.5 nM, respectively. The IC50 at D3R [3] worked out at 21.2 ± 9.8 nM.

As for `C=CCN1C[C@@H](OC(=O)NCCCCCCCCc2cccs2)C[C@H]1CNC(=O)c1cc(CCCF)cc(OC)c1OC` [(S,S)-cis-2i, (3S,5S)-1-allyl-5-((5-(3-fluoropropyl)-2,3-dimethoxybenzamido)methyl)pyrrolidin-3-yl (8-(thiophen-2-yl)octyl)carbamate], the values for the Ki on human D2 and at D3R [1] were 68 ± 12 nM and 148 ± 37 nM, respectively.

In the case of `C=CCN1C[C@H](OC(=O)NCCCCCCCCc2cccs2)C[C@@H]1CNC(=O)c1cc(CCCF)cc(OC)c1OC` [(R,R)-cis-2i, (3R,5R)-1-allyl-5-((5-(3-fluoropropyl)-2,3-dimethoxybenzamido)methyl)pyrrolidin-3-yl (8-(thiophen-2-yl)octyl)carbamate], the Ki on human D2 amounted to 2190 ± 235 nM; at D3R [1], 722 ± 234 nM. For the same compound, on D3R [1], the “D2R/D3R Ratio” value was determined as 3.0.

As to `C=CCN1C[C@@H](OC(=O)NCCCCCCCCCC)C[C@H]1CNC(=O)c1cc(CCCF)cc(OC)c1OC` [(S,S)-cis-2d, (3S,5S)-1-allyl-5-((5-(3-fluoropropyl)-2,3-dimethoxybenzamido)methyl)pyrrolidin-3-yl decylcarbamate], the Ki turned out to be 164 ± 29 nM at human D2 and 282 ± 69 nM on D3R [1]. Moreover, the half-inhibitory concentration (IC50) at D3R [3] turned out to be 608 ± 231 nM.

Regarding `C#CCOCCOCCNC(=O)O[C@@H]1C[C@@H](CNC(=O)c2cc(CCCF)cc(OC)c2OC)N(CC=C)C1` [(R,S)-trans-2g, (3R,5S)-1-allyl-5-((5-(3-fluoropropyl)-2,3-dimethoxybenzamido)methyl)pyrrolidin-3-yl (2-(2-(prop-2-yn-1-yloxy)ethoxy)ethyl)carbamate], on human D2, the Ki is 9 ± 0.3 nM. Also, on D3R [1], the “D2R/D3R Ratio” value was 2.4 and the Ki turned out to be 3.7 ± 0.8 nM.

Turning to `CCN1CCC[C@H]1CNC(=O)c1c(O)c(Cl)cc(Cl)c1OC` [[^11C]Raclopride, Raclopride], on D3R [2] (Figure 1, PET radiotracers), the D2R/D3R is 0.514 and the Ki was 3.5 nM. The Ki at D2R (setting [5]) is 1.8 nM.

Consider `C=CCN1C[C@H](OC(=O)NCCOCCOCCOC)C[C@H]1CNC(=O)c1cc(CCCF)cc(OC)c1OC` [(R,S)-trans-2e, (3R,5S)-1-allyl-5-((5-(3-fluoropropyl)-2,3-dimethoxybenzamido)methyl)pyrrolidin-3-yl (2-(2-(2-methoxyethoxy)ethoxy)ethyl)carbamate], for which the Ki on human D2 amounted to 9.2 ± 0.8 nM; on D3R [1] it was 4.1 ± 0.6 nM. Further, the “D2R/D3R Ratio” value on D3R [1] turned out to be 2.2.

Take `C=CCN1CCC[C@H]1CNC(=O)c1cc(CCCF)cc(OC)c1OC` [Fallypride]: the Ki on D2R (setting [5]) is 0.02 nM. Further, the “Distance to D3R ASP110^3.32” value at D3R [4] is given as 3.17 ± 0.21 Å.

`C=CCN1C[C@@H](OC(=O)NCCCCCCCCc2cccs2)C[C@@H]1CNC(=O)c1cc(CCCF)cc(OC)c1OC` [(S,R)-trans-2i, (3S,5R)-1-allyl-5-((5-(3-fluoropropyl)-2,3-dimethoxybenzamido)methyl)pyrrolidin-3-yl (8-(thiophen-2-yl)octyl)carbamate]: the Ki at human D2 was 1470 ± 166 nM. Moreover, at D3R [1], the “D2R/D3R Ratio” value was determined as 0.6 and the Ki came out at 2420 ± 975 nM.

In the case of `CC[11CH2]N1CCO[C@@H]2c3cc(O)ccc3CC[C@H]21` [[^11C]-(+)-PHNO], on D2R (Figure 1, printed with superscript H, read-out: ^HD2R affinity), the Ki is 0.45 nM.

Regarding `C=CCN1C[C@H](OC(=O)NCCCCCCCCc2cccs2)C[C@H]1CNC(=O)c1cc(CCCF)cc(OC)c1OC` [(R,S)-trans-2i, (3R,5S)-1-allyl-5-((5-(3-fluoropropyl)-2,3-dimethoxybenzamido)methyl)pyrrolidin-3-yl (8-(thiophen-2-yl)octyl)carbamate], at human D2, the Ki worked out at 3.7 ± 0.2 nM. At D3R [1], the “D2R/D3R Ratio” value was determined as 5.6 and the Ki was found to be 0.7 ± 0.1 nM.

With `C=CCN1C[C@@H](OC(=O)NCCCCCCCCCC)C[C@@H]1CNC(=O)c1cc(CCCF)cc(OC)c1OC` [(S,R)-trans-2d, (3S,5R)-1-allyl-5-((5-(3-fluoropropyl)-2,3-dimethoxybenzamido)methyl)pyrrolidin-3-yl decylcarbamate], at human D2, the Ki is 1940 ± 380 nM. In addition, the IC50 on D3R [3] is > 1000 nM. On D3R [1], the “D2R/D3R Ratio” value stood at 0.7 and the Ki worked out at 2630 ± 815 nM.

Consider `C=CCN1C[C@H](OC(=O)NCCCCCCCCc2ccsc2)C[C@H]1CNC(=O)c1cc(CCCF)cc(OC)c1OC` [(R,S)-trans-2j, (3R,5S)-1-allyl-5-((5-(3-fluoropropyl)-2,3-dimethoxybenzamido)methyl)pyrrolidin-3-yl (8-(thiophen-3-yl)octyl)carbamate], for which the Ki on human D2 came to 10.5 ± 2 nM; on D3R [1], 2.1 ± 0.1 nM. Also, the “D2R/D3R Ratio” value on D3R [1] is reported as 5.0.
